Data published in patent publication US20230102590A1, “USE OF POLYETHER COMPOUND” (Senju Pharmaceutical Co., Ltd., priority 2020, published 2023).
Read-outs that look alike come from different tables or passages of the source.

How the values were obtained:
[1] = Stability test: change in pH of poloxamer and/or polyethylene glycol solutions stored at 60° C. for four weeks; conditions: for stabilization of poloxamer 407 or PEG 4000 by the additive alone / concentration of additive able to stabilize PEG 4000 / concentration of additive able to stabilize poloxamer 407: pH change
Experimental: An additional component was added to an aqueous solution comprising poloxamer and/or polyethylene glycol, and the change in the viscosity and pH was measured over time under harsh conditions of 60° C. The following were used as the poloxamer, polyethylene glycol, and buffer. • Poloxamer 407 (Kolliphor P 407, BASF, Germany) • PEG 4000 (Macrogol 4000, NOF, Tokyo) • Buffer: 0.9% boric acid, 0.1% borax
The pH was adjusted with hydrochloric acid or sodium hydroxide. […] A polyethylene eye drop bottle was filled with 5 mL of each filtrate and stored in a 60° C. thermostatic vessel. The pH and viscosity of the test solutions as of preparation and at four weeks after storage were measured. The viscosity was measured using a rotational viscometer (Toki Sangyo (Osaka) Model TVE-25 viscometer type L, 25° C., 100 rpm). The pH as of the preparation was measured in the test solution before transferring to an eye drop bottle for storage.

[2] = Basic solubility at 25° C. in ethanol, PEG 400, propylene glycol (PG) and buffer solution; solubility ratio non-aqueous solvent / buffer solution; conditions: for Solubility, Buffer solution: phosphate buffer pH 7.0
Experimental: In this regard, the buffer solution had the following composition: • 0.2% sodium hydrogen phosphate hydrate • 0.3% sodium dihydrogen phosphate hydrate • sodium hydroxide and hydrochloric acid (suitable amount was added to adjust the pH to 7.0; however, pH was adjusted to 7.4 for cabozantinib and telmisartan).
However, the following composition was used for rebamipide instead: • 0.05% sodium hydrogen phosphate hydrate • 0.45% sodium dihydrogen phosphate hydrate • sodium hydroxide and hydrochloric acid (suitable amount was added to adjust the pH to 6.0).
Each compound was measured in the same manner described above. In the Table, the molecular weight and Log P values are reference values (or values calculated from reference values).

[3] = Experimental: Fujifilm Wako Pure Chemical
The poorly soluble compound content in the recovered filtrate was measured by liquid chromatography specified below (Shimadzu (Kyoto), high performance liquid chromatograph Prominence).
As the standard product of triamcinolone acetonide, a reagent from the Pharmaceutical and Medical Device Regulatory Science Society of Japan (Japan) was used. • 50 μL of sample solution and standard solution was measured by liquid chromatography under the following conditions.
Column temperature: constant temperature of about 40° C. Mobile phase A: 0.1% trifluoroacetic acid/10% acetonitrile solution Mobile phase B: 0.1% trifluoroacetic acid/90% acetonitrile solution Delivery of mobile phase: the ratio of mixture of mobile phase A and mobile phase B was changed as follows to control the linear concentration gradient.
Detergent: 50% acetonitrile solution Flow rate: 1.0 mL/min Temperature within autosampler: 5° C.
The following conditions were tested as additives to a poorly soluble compound
wherein SA+B=solubility of a poorly soluble compound in a composition comprising poloxamer 407 and PEG 4000 SB=solubility of a poorly soluble compound in a composition comprising PEG 4000, but not poloxamer 407 SA=solubility of a poorly soluble compound in a composition comprising poloxamer 407, but not PEG 4000 S0=solubility of a poorly soluble compound in a composition that comprises neither poloxamer 407 nor PEG 4000.
The solubility in a composition of PEG and poloxamer was measured in the same manner described above for additional compounds.
For cabozantinib and telmisartan, the pH of the aqueous solution with the base composition described above was changed to 7.4. For rebamipide, the aqueous solution with the base composition was as follow. • 0.05% sodium hydrogen phosphate hydrate • 0.45% sodium dihydrogen phosphate hydrate • sodium hydroxide and hydrochloric acid (suitable amount was added to adjust the pH to 6.0)
Additional compounds were measured in the same manner described above.
Cabozantinib and telmisartan were tested with a solution adjusted to a pH of 7.4. Rebamipide was tested with a solution adjusted to a pH of 6.0. Other compounds were tested with a solution adjusted to a pH of 7.0.

[4] = 25° C., buffer pH 7.0 (pH 7.4 for cabozantinib and telmisartan; pH 6.0 for rebamipide)

SMILES	Solubility ratio of solvent with respect to buffer solution Ethanol/buffer solution [2, 4]	Solubility ratio of solvent with respect to buffer solution PEG400/buffer solution [2, 4]	Solubility ratio of solvent with respect to buffer solution PG/buffer solution [2, 4]	Solubility scale factor at 5° C. 30% PEG 4000/10% poloxamer 407 [3]	Solubility scale factor at 15° C. 30% PEG 4000/10% poloxamer 407 [3]	further results
O=S([O-])[O-].[Na+].[Na+] [sodium sulfite]	–	–	–	–	–	stabilization of poloxamer 407 or PEG 4000 by the additive alone ([1]; four weeks at 60° C.): could not stabilize poloxamer 407 or PEG 4000
CC1(C)O[C@@H]2C[C@H]3[C@@H]4CCC5=CC(=O)C=C[C@]5(C)[C@@]4(F)[C@@H](O)C[C@]3(C)[C@]2(C(=O)CO)O1 [triamcinolone acetonide]	–	–	–	–	–	Solubility, Buffer solution ([2]; 25° C.): 0.001426%
CCC(C)n1ncn(-c2ccc(N3CCN(c4ccc(OCC5COC(Cn6cncn6)(c6ccc(Cl)cc6Cl)O5)cc4)CC3)cc2)c1=O (centres unmarked) [Itraconazole]	–	–	–	–	–	Solubility, Buffer solution ([2]; 25° C.): below the detection limit
O=S([O-])S(=O)(=O)[O-].[Na+].[Na+] [sodium pyrosulfite]	–	–	–	–	–	stabilization of poloxamer 407 or PEG 4000 by the additive alone ([1]; four weeks at 60° C.): could not stabilize poloxamer 407 or PEG 4000
CC1(C)O[C@@H]2C[C@H]3[C@@H]4CCC5=CC(=O)C=C[C@]5(C)[C@H]4[C@@H](O)C[C@]3(C)[C@]2(C(=O)CO)O1 [Desonide]	270.67	143.78	174.69	7.59	6.73	Solubility, PEG400 ([2]; 25° C.): 1.031%; Solubility, PG (propylene glycol) ([2]; 25° C.): 1.253%; Solubility, Buffer solution ([2]; 25° C.): 0.007171%
CNC(=O)c1cc(Oc2ccc(NC(=O)Nc3ccc(Cl)c(C(F)(F)F)c3)cc2)ccn1 [Soraf ? nib]	4781694.68	7210696.23	4473505.75	2355.97	450.47	–
C[C@@H]1C[C@H]2[C@@H]3CCC4=CC(=O)C=C[C@]4(C)[C@@]3(F)[C@@H](O)C[C@]2(C)[C@@]1(O)C(=O)CO [dexamethasone]	–	–	–	7.45	7.10	Solubility, Buffer solution ([2]; 25° C.): 0.008221%
Cc1ccc(-c2cc(C(F)(F)F)nn2-c2ccc(S(N)(=O)=O)cc2)cc1 [Cel ? coxib]	80774.38	371931.96	28507.07	686.99	183.33	–
COC1=CC(=O)C[C@@H](C)[C@]12Oc1c(Cl)c(OC)cc(OC)c1C2=O [Griseofulvin]	309.31	1745.29	200.23	15.19	14.31	Solubility, Ethanol ([2]; 25° C.): 0.2423%; Solubility, PEG400 ([2]; 25° C.): 1.367%; Solubility, PG (propylene glycol) ([2]; 25° C.): 0.1569%; Solubility, Buffer solution ([2]; 25° C.): 0.0007834%
COC(=O)Nc1nc2cc(C(=O)c3ccc(F)cc3)ccc2[nH]1 [Flubendazole]	745.67	5882.38	1401.17	24.46	12.41	Solubility, Ethanol [2]: 0.007308%
Cc1cn(-c2cc(NC(=O)c3ccc(C)c(Nc4nccc(-c5cccnc5)n4)c3)cc(C(F)(F)F)c2)cn1 [Nilotinib]	–	–	–	144.99	31.62	Solubility ratio of solvent with respect to buffer solution Ethanol/buffer solution [2]: 1623663.73; Solubility ratio of solvent with respect to buffer solution PEG400/buffer solution [2]: 7100339.79; Solubility ratio of solvent with respect to buffer solution PG/buffer solution [2]: 1437221.83
CC1(C)O[C@@H]2C[C@H]3[C@@H]4CCC5=CC(=O)C=C[C@]5(C)[C@@]4(F)[C@@H](O)C[C@]3(C)[C@]2(C(=O)CO)O1 [Triamsinolone acetonide]	1043.62	876.48	680.05	7.32	7.52	–
C=C(C)[C@H]1Cc2c(ccc3c2O[C@@H]2COc4cc(OC)c(OC)cc4[C@@H]2C3=O)O1 [Rotenone]	30294.14	368226.98	13159.33	–	–	Solubility, PEG400 ([2]; 25° C.): 3.314%; Solubility, PG (propylene glycol) ([2]; 25° C.): 0.1184%
O=S([O-])([O-])=S.[Na+].[Na+] [Sodium thiosulfate]	–	–	–	–	–	concentration of additive able to stabilize PEG 4000 ([1]; four weeks at 60° C.): 0.01%; concentration of additive able to stabilize poloxamer 407 ([1]; four weeks at 60° C.): 0.03%
CNC(=O)c1cc(Oc2ccc(NC(=O)Nc3ccc(Cl)c(C(F)(F)F)c3)c(F)c2)ccn1 [Regorafenib]	2004388.60	7691626.26	1186517.97	182.78	114.87	Solubility, Buffer solution ([2]; 25° C.): 0.0000004174%
Brc1cccc2c1oc1ccccc12 [4-bromodibenzofuran]	–	–	–	–	–	state of the test composition [3]: converted into gel
Cc1ccc(-c2cc(C(F)(F)F)nn2-c2ccc(S(N)(=O)=O)cc2)cc1 [Celecoxib]	–	–	–	–	–	Solubility, Ethanol ([2]; 25° C.): 10.24%
O=C(O)CN(CCN(CC(=O)O)CC(=O)O)CC(=O)O [EDTA, ethylenediaminetetraacetic acid]	–	–	–	–	–	stabilization effect on low molecular weight PEG 400 ([1]; 0.1% additive): exhibited a stabilization effect; amount of PEG 4000 that the additive was able to stabilize ([1]; 0.1% additive, four weeks at 60° C.): up to 20%; concentration of additive able to stabilize PEG 4000 ([1]; four weeks at 60° C.): ≥ 0.1%; concentration of additive able to stabilize poloxamer 407 ([1]; four weeks at 60° C.): 0.01%
OC[C@@H](O)[C@@H](O)[C@H](O)[C@H](O)CO [Mannitol]	–	–	–	–	–	stabilization of poloxamer 407 or PEG 4000 by the additive alone ([1]; four weeks at 60° C.): could not stabilize poloxamer 407 or PEG 4000
Brc1cccc2c1oc1ccccc12 [4-bromadibenzofuran]	426955.49	1693721.20	106519.51	793.72	1.61	–
O=C1Nc2ccc(Cl)cc2[C@@](C#CC2CC2)(C(F)(F)F)O1 [Efavir ? nt]	101607.44	96901.18	66368.13	14.23	1.97	–
